Test results: patent publication US20120132797A1, “MEANS AND METHODS FOR DIAGNOSING THYROID DISORDERS” (BASF SE, priority 2009, published 2012)
Values belong to the molecule of their own block, whether it stands above or below them.

System: Wistar (Crl:WI(Han)) rats
Assay: Mass spectrometry-based plasma metabolite profiling of rats treated with known inducers of thyroid function impairment
Type: in vivo, rat
Details: ratio of group medians vs controls
Source text: At the beginning of the study the animals were 10-11 weeks old. Each dose group in the studies consisted of five rats per sex, and was compared with controls (10 rats per sex). […] The dose levels were chosen to show the typical overt (high dose) and slight (low dose) toxicological symptoms of the substances as described in the literature or in BASF internal study reports.
Blood samples were withdrawn from the retro-orbital sinus in all rats under isoflurane anesthesia on study days 7, 14 and 28 after a fasting period of 16-20 hours.
For mass spectrometry-based metabolite profiling analysis, plasma samples were extracted by a proprietary method which delivers a polar and a non-polar fraction. For GC-MS analysis, the non-polar fraction was treated with methanol under acidic conditions to yield the fatty acid methyl esters. Both fractions were further derivatised with Omethyl-hydroxyamine hydrochloride and pyridine to convert oxo groups to Omethyloximes and subsequently with a silylating agent before analysis.
In LC-MS/MS analysis, both fractions were reconstituted in appropriate solvent mixtures. HPLC was performed by gradient elution on reversed phase separation columns. For mass spectrometric detection metanomics proprietary technology was applied, which allows target and high sensitivity MRM (Multiple Reaction Monitoring) profiling in parallel to a full screen analysis. […] Moreover, several hundred additional analytes giving a fingerprint of the sample were included in the methods.
Following comprehensive analytical validation steps, the data for each analyte were normalized against data from pool samples. These samples were run in parallel through the whole process to account for process variability.
The sex- and day-stratified heteroscedastic t-test (“Welch test”) was applied to compare treated groups with respective controls. p-Values and ratios of corresponding group medians were collected as metabolic profiles and fed into a database.

[1] = female rats, fh7 (study day 7), Table 1
[2] = female rats, fh14 (study day 14), Table 1
[3] = female rats, fh28 (study day 28), Table 1
[4] = male rats, mh7 (study day 7), Table 2
[5] = male rats, mh14 (study day 14), Table 2
[6] = male rats, mh28 (study day 28), Table 2
[7] = female rats, fh7 (study day 7), Table 3
[8] = female rats, fh14 (study day 14), Table 3
[9] = female rats, fh28 (study day 28), Table 3

5-O-Methylsphingosine [1]: 1.40 | Asparagine [1]: 1.10 | Behenic acid (C22:0) [1]: 1.27 | Citrate [1]: 0.87 | Docosahexaenoic acid (C22:cis[4,7,10,13,16]6) [1]: 1.25 | Glycine [1]: 1.13 | Ketoleucine [1]: 1.05 | Lysophosphatidylcholine (C18:2) [1]: 1.07 | Phosphatidylcholine (C16:1, C18:2) [1]: 1.49 | Phosphatidylcholine (C18:2, C20:4) [1]: 1.20 | Pyruvate [1]: 0.91 | Tricosanoic acid (C23:0) [1]: 1.45 | erythro-Sphingosine [1]: 1.46 | threo-Sphingosine [1]: 1.24 | Sphingomyelin (d18:1, C16:0) (female rats, fh7 (study day 7), Table 1, first listing): 1.01 | Sphingomyelin (d18:1, C16:0) (female rats, fh7 (study day 7), Table 1, second listing): 1.26 | 5-O-Methylsphingosine [2]: 1.36 | Asparagine [2]: 1.09 | Behenic acid (C22:0) [2]: 1.14 | Citrate [2]: 0.69 | Docosahexaenoic acid (C22:cis[4,7,10,13,16]6) [2]: 1.14 | Glycine [2]: 1.08 | Ketoleucine [2]: 0.80 | Lysophosphatidylcholine (C18:2) [2]: 1.31 | Phosphatidylcholine (C16:1, C18:2) [2]: 1.37 | Phosphatidylcholine (C18:2, C20:4) [2]: 1.17 | Pyruvate [2]: 0.65 | Tricosanoic acid (C23:0) [2]: 1.30 | erythro-Sphingosine [2]: 1.28 | threo-Sphingosine [2]: 1.29 | Sphingomyelin (d18:1, C16:0) (female rats, fh14 (study day 14), Table 1, first listing): 1.46 | Sphingomyelin (d18:1, C16:0) (female rats, fh14 (study day 14), Table 1, second listing): 1.33 | 5-O-Methylsphingosine [3]: 1.20 | Asparagine [3]: 0.93 | Behenic acid (C22:0) [3]: 1.23 | Citrate [3]: 0.66 | Docosahexaenoic acid (C22:cis[4,7,10,13,16]6) [3]: 0.84 | Glycine [3]: 1.05 | Ketoleucine [3]: 0.89 | Lysophosphatidylcholine (C18:2) [3]: 1.26 | Phosphatidylcholine (C16:1, C18:2) [3]: 1.09 | Phosphatidylcholine (C18:2, C20:4) [3]: 1.17 | Pyruvate [3]: 0.73 | Tricosanoic acid (C23:0) [3]: 1.36 | erythro-Sphingosine [3]: 1.24 | threo-Sphingosine [3]: 1.34 | Sphingomyelin (d18:1, C16:0) (female rats, fh28 (study day 28), Table 1, first listing): 1.62 | Sphingomyelin (d18:1, C16:0) (female rats, fh28 (study day 28), Table 1, second listing): 1.29 | 3-O-Methylsphingosine [4]: 1.57 | 5-O-Methylsphingosine [4]: 1.50 | 14-Methyl-Pentadecanoic acid [4]: 0.98 | 17-Methyloctadecanoic acid [4]: 1.10 | Arginine [4]: 1.09 | Cholesterol [4]: 1.42 | Citrate [4]: 0.90 | Dihom-gamma-Linolenic acid (C20:cis[8,11,14]3) [4]: 1.02 | Lignoceric acid (C24:0) [4]: 1.28 | Phytosphingosine [4]: 1.11 | Sphingomyelin (d18:1, C16:0) [4]: 1.35 | Tricosanoic acid (C23:0) [4]: 1.28 | alpha-Tocopherol [4]: 1.20 | erythro-Sphingosine [4]: 1.46 | threo-Sphingosine [4]: 1.33 | Glutamate (male rats, mh7 (study day 7), Table 2, first listing): 0.78 | Glutamate (male rats, mh7 (study day 7), Table 2, second listing): 1.03 | 3-O-Methylsphingosine [5]: 1.41 | 5-O-Methylsphingosine [5]: 1.38 | 14-Methyl-Pentadecanoic acid [5]: 0.86 | 17-Methyloctadecanoic acid [5]: 0.67 | Arginine [5]: 1.10 | Cholesterol [5]: 0.98 | Citrate [5]: 0.73 | Dihom-gamma-Linolenic acid (C20:cis[8,11,14]3) [5]: 1.33 | Lignoceric acid (C24:0) [5]: 1.12 | Phytosphingosine [5]: 1.07 | Sphingomyelin (d18:1, C16:0) [5]: 1.35 | Tricosanoic acid (C23:0) [5]: 1.10 | alpha-Tocopherol [5]: 1.15 | erythro-Sphingosine [5]: 1.30 | threo-Sphingosine [5]: 1.23 | Glutamate (male rats, mh14 (study day 14), Table 2, first listing): 0.78 | Glutamate (male rats, mh14 (study day 14), Table 2, second listing): 0.70 | 3-O-Methylsphingosine [6]: 1.90 | 5-O-Methylsphingosine [6]: 1.82 | 14-Methyl-Pentadecanoic acid [6]: 0.64 | 17-Methyloctadecanoic acid [6]: 0.70 | Arginine [6]: 1.35 | Cholesterol [6]: 1.23 | Citrate [6]: 0.64 | Dihom-gamma-Linolenic acid (C20:cis[8,11,14]3) [6]: 1.50 | Lignoceric acid (C24:0) [6]: 1.16 | Phytosphingosine [6]: 1.20 | Sphingomyelin (d18:1, C16:0) [6]: 1.71 | Tricosanoic acid (C23:0) [6]: 1.55 | alpha-Tocopherol [6]: 1.12 | erythro-Sphingosine [6]: 1.47 | threo-Sphingosine [6]: 1.52 | Glutamate (male rats, mh28 (study day 28), Table 2, first listing): 0.65 | Glutamate (male rats, mh28 (study day 28), Table 2, second listing): 0.49
Compound: CCCc1cc(=O)[nH]c(=S)[nH]1 [6-Propyl-2-thiouracil]

Arachidonic acid (C20:cis[58,11,14]4) [7]: 1.04 | Behenic acid (C22:0) [7]: 1.34 | Cholesterol [7]: 1.14 | Cysteine [7]: 0.70 | Docosahexaenoic acid (C22:cis[4,7,10,13,16,19]6) [7]: 1.37 | Dodecanol [7]: 1.06 | Eicosanoic acid (C20:0) [7]: 1.06 | Glycerol phosphate [7]: 1.21 | Heptadecanoic acid (C17:0) [7]: 1.14 | Linoleic acid (C18:cis[9,12]2) [7]: 1.19 | Nervonic acid C24:(cis[15]1) [7]: 1.11 | Palmitic acid (C16:0) [7]: 1.21 | Sphingomyelin (d18:1, C16:0) [7]: 1.34 | Stearic acid (C18:0) [7]: 0.99 | Threonic acid [7]: 1.45 | dihomo-gamma-Linolenic acid (C20:cis[8,11,14]3) [7]: 0.83 | erythro-Sphingosine [7]: 1.38 | gamma-Linolenic acid (C18:cis[6,9,12]3) [7]: 0.91 | myo-Inositol-2-phosphate [7]: 1.61 | threo-Sphingosine [7]: 1.28 | Arachidonic acid (C20:cis[58,11,14]4) [8]: 1.20 | Behenic acid (C22:0) [8]: 1.25 | Cholesterol [8]: 1.41 | Cysteine [8]: 0.63 | Docosahexaenoic acid (C22:cis[4,7,10,13,16,19]6) [8]: 1.42 | Dodecanol [8]: 1.11 | Eicosanoic acid (C20:0) [8]: 1.34 | Glycerol phosphate [8]: 1.26 | Heptadecanoic acid (C17:0) [8]: 1.27 | Linoleic acid (C18:cis[9,12]2) [8]: 1.27 | Nervonic acid C24:(cis[15]1) [8]: 1.52 | Palmitic acid (C16:0) [8]: 1.30 | Sphingomyelin (d18:1, C16:0) [8]: 1.26 | Stearic acid (C18:0) [8]: 1.02 | Threonic acid [8]: 1.26 | dihomo-gamma-Linolenic acid (C20:cis[8,11,14]3) [8]: 1.53 | erythro-Sphingosine [8]: 1.61 | gamma-Linolenic acid (C18:cis[6,9,12]3) [8]: 1.67 | myo-Inositol-2-phosphate [8]: 1.60 | threo-Sphingosine [8]: 1.63 | Arachidonic acid (C20:cis[58,11,14]4) [9]: 1.36 | Behenic acid (C22:0) [9]: 1.34 | Cholesterol [9]: 1.55 | Cysteine [9]: 0.76 | Docosahexaenoic acid (C22:cis[4,7,10,13,16,19]6) [9]: 1.27 | Dodecanol [9]: 1.05 | Eicosanoic acid (C20:0) [9]: 1.15 | Glycerol phosphate [9]: 1.26 | Heptadecanoic acid (C17:0) [9]: 1.38 | Linoleic acid (C18:cis[9,12]2) [9]: 1.21 | Nervonic acid C24:(cis[15]1) [9]: 1.74 | Palmitic acid (C16:0) [9]: 1.44 | Sphingomyelin (d18:1, C16:0) [9]: 1.27 | Stearic acid (C18:0) [9]: 1.17 | Threonic acid [9]: 0.98 | dihomo-gamma-Linolenic acid (C20:cis[8,11,14]3) [9]: 1.26 | erythro-Sphingosine [9]: 1.69 | gamma-Linolenic acid (C18:cis[6,9,12]3) [9]: 2.30 | myo-Inositol-2-phosphate [9]: 1.70 | threo-Sphingosine [9]: 1.66
Compound: Cc1ncc[nH]1 [2-Methylimidazole]
